Laboratory results from patent US20160193240A1, “Ulmoside-A: Useful For Prevention Or Cure Of Metabolic Diseases” (COUNCIL OF SCIENTIFIC & INDUSTRIAL RESEARCH, priority 2013, published 2016).

What was measured:
C2C12 myotubes = experiment: QRT-PCR of fatty acid transport, oxidation, mitochondrial biogenesis genes in C2C12 myotubes; assay type: cell-based, mouse; conditions: 10 nM, 12 or 24 hours
Protocol: A. ULMA induces expression of fatty acid transport, oxidation, mitochondrial biogenesis and energy dissipation related genes. C2C12 myotubes in 6 well plates were treated with 10 nM ULMA or vehicle (designated as 0 h; 0.1% vol/vol DMSO) for 12 h or 24 h. Following treatment, RNA was extracted and 1 μg RNA from each well was used to prepare cDNA and the cDNAs were then used for quantitative real-time PCR for indicated genes. Beta-actin was used as normalizing control. The relative mRNA level was quantitated using ddCT method and plotted as fold activity over vehicle treated control (0 h). Data is mean±SEM of 4-6 independent experiments performed in triplicates. *p<0.05, **p<0.01, ***p<0.001 compared to vehicle (DMSO) treated controls as determined by two tailed unpaired student's t-test.
Adiponectin enhances transcription of genes regulating fatty acid transport, fatty acid-oxidation and mitochondrial uncoupling proteins in skeletal muscle and myotubes (T. Kadowaki, T. Yamauchi, N. Kubota, K. Hara, K. Ueki, K. Tobe. J Clin Invest. 116(7): 1784-92. 2006; S. Dridi, M. Taouis. Journal of Nutritional Biochemistry 20 (2009): 831-839. 2009; M. Iwabu, T. Yamauchi, M. Okada-Iwabu, K. Sato, T. Nakagawa, M. Funata, M. Yamaguchi, S. Namiki, R. Nakayama, M. Tabata, H. Ogata, N. Kubota, I. Takamoto, Y. K. Hayashi, N. Yamauchi, H. Waki, M. Fukayama, I. Nishino, K. Tokuyama, K. Ueki, Y. Oike, S. Ishii, K. Hirose, T. Shimizu, K. Touhara, T. Kadowaki. Nature; 464(7293):1313-1319. 2010). The ability of ULMA to influence expression of these genes were checked in c2c12 myotubes. C2C12 myotubes in 6 well plates were treated with 10 nM ULMA or vehicle (DMSO) for 12 hours or 24 hours. Following treatment, the cells were washed with ice-cold PBS and RNA was extracted using Trizol (Ambion) according to manufacturer's instructions. The RNAs were quantitated using a spectrophotometer (nanophotometer; Implen GMBH) and 1 μg RNA was used to prepare cDNA using a cDNA synthesis kit (Applied Biosystems). cDNAs were then used for quantitative real-time PCR for indicated genes (FIG. 3A) using Veriquest SYBR green QRT-PCR mastermix (US Biologicals) and a Roche lightcycler 480 thermal cycler (Roche Diagnostics). Beta-actin was used as normalizing control. The relative mRNA level was quantitated using ddCT method. […] Adiponectin is also known to induce muscle and adipose glucose transporter 4 (GLUT4) expressions; and the ability of ULMA to induce the expression of GLUT4, PPAR and PGC-1α was investigated by western blotting. C2C12 myotubes in 10 cm dish were treated with vehicle (DMSO) or 10 nM ULMA in DMSO for 24 hours or 48 hours followed by western blotting as described [S. K. Dwivedi, N. Singh, R. Kumari, J. S. Mishra, S. Tripathi, P. Banerjee, P. Shah, V. Kukshal, A. M. Tyagi, A. N. Gaikwad, R. K. Chaturvedi, D. P. Mishra, A. K. Trivedi, S. Sanyal, N. Chattopadhyay, R. Ramachandran, M. I. Siddiqi, A. Bandyopadhyay, A. Arora, T. Lundasen, S. P. Anakk, D. D. Moore, S. Sanyal. Mol Endocrinol. 25(6): 922-932. 2011).

GAL-PPARα = experiment: PPARα activation assay (GAL-PPARα / GAL4-Luc reporter) in HEK293 cells expressing endogenous AdipoR1; assay type: cell-based, human
Protocol: A. ULMA enhances PPARα ligand activity; HEK293 cells were seeded on to 24 well plates and after 24 h, transfected with 100 ng of GAL-PPARα and 100 ng GAL4-Luc along with 100 ng eGFPC1 (Clontech) plasmids using lipofectamine LTX (Invitrogen) according to manufacturer's instructions. 24 h after transfection, cells were treated with or without 100 pM GW-7647 alone or in combination with 100 nM ULMA or 1 μg/ml globular adiponectin (gAd) for 6 h. Following which, the cells were lysed and GFP fluorescence and firefly luciferase activities were measured. Luciferase activity was normalized with GFP fluorescence and plotted as fold activity over vehicle (0.1% DMSO) treated control. Data shown in mean±SEM of three independent experiments performed in duplicates. *p<0.05 as determined by two tailed unpaired student's t-test.
The potential of ULMA to activate adiponectin receptor signaling was evaluated using a PPARα activation assay. […] 24 hours following plating, these cells were transfected with 100 ng of GAL-PPARα (PPARα cDNA fused with GAL4 DNA binding domain) and 100 ng GAL4 upstream activation sequence driven luciferase (GAL4-Luc) reporter gene that is capable of binding to any protein fused to GAL4-DNA binding domain (in this case GAL-PPARα) and 100 ng Green fluorescence expressing plasmid (GFP) that was used as an internal control, using lipofectamine LTX transfection reagent (Invitrogen) according to manufacturers' instructions. […] The cells were then lysed and luciferase activity was measured in a Promega GloMax luminometer using steady Glo luciferase assay kit (Promega) according to manufacturers' instructions; and GFP fluorescence was measured in a fluorimeter (Polarstar Galaxy, BMG Labtech). […]

O=C1c2c(cc(O)c([C@@H]3O[C@H](CO)[C@@H](O)[C@H](O)[C@H]3O)c2O)O[C@@H](c2ccc(O)c(O)c2)[C@@H]1O [ULMA, (2S,3S)-(+)-3′,4′,5,7-tetrahydroxydihydroflavonol-6-C-β-D-glucopyranoside]
ACOX1 mRNA expression (C2C12 myotubes): enhanced expressions | CD36 mRNA expression (C2C12 myotubes): induced expression | CPT1B mRNA expression (C2C12 myotubes): enhanced expressions | FABP3 mRNA expression (C2C12 myotubes): induced expression | PGC-1α mRNA expression (C2C12 myotubes): induced expression | PPARα mRNA expression (C2C12 myotubes): induced expression | fatty acyl CoA synthetase mRNA expression (C2C12 myotubes): enhanced expressions | uncoupling protein 2 mRNA expression (C2C12 myotubes): induced expressions | uncoupling protein 3 mRNA expression (C2C12 myotubes): induced expressions | potency in enhancing PPARα ligand activity, comparison (GAL-PPARα; 100 nM ULMA vs 1 μg/ml globular adiponectin, with 100 pM GW-7647): more potent than globular adiponectin | enhancement of GW-7647 induced luciferase activity (PPARα ligand activity) (GAL-PPARα; co-treatment with 100 pM GW-7647, 100 nM ULMA or 1 μg/ml globular adiponectin, 6 hours): further enhanced
